Common to all, as to experiment: NCI anticancer screen, dose series, 48 h
Assay [1] has as its system DU-145 prostate.
Assay [2] has as its system NCI/ADR-RES ovarian.
Assay [3] relates to SF-539 CNS.
In assay [4] the test system is EKVX NSCLC.
The test system of assay [5] is OVCAR-8 ovarian.
In assay [6] the test system is CAKI-1 renal.
Assay [7] relates to MALME-3M melanoma.
Assay [8] deals with HL-60(TB) leukemia.
For assay [9], the system named is T-47D breast.
Assay [10] relates to MOLT-4 leukemia.

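How tested: cells in 96-well plates exposed to compound for 48 hours at five concentrations. GI50 marks 50% less growth. TGI denotes the concentration required for complete inhibition of growth.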

Take `CN1CCN(C(=O)/C=C/c2ccc([N+](=O)[O-])o2)CC1`: the GI50 in [1] is 9.33 µM; in [2], 14.9 µM; in [3], 15 µM; in assay [4] it was 23.2 µM; in assay [5] it was 18.5 µM; in assay [6], 10.6 µM. Also, the GI50 was 3.76 µM in assay [7], 10.7 µM in [8], 18.1 µM in assay [9] and 10.7 µM in [10]. Besides, the TGI in [1] is 21.2 µM; in [2], 52.5 µM; in [3], 45 µM; in assay [4], 87.6 µM; in [5], more than 100 µM; in assay [6] it was 34.3 µM. For the same compound, the TGI was determined as 14.3 µM in assay [7], 34 µM in assay [8], 45.4 µM in assay [9] and 93.4 µM in assay [10].
Turning to `COc1cc(/C=C/C(=O)c2nc3cc(F)ccc3nc2C)cc(OC)c1OC`, the GI50 was 3.09 µM in assay [1]; 14.2 µM in assay [2]; more than 100 µM in assay [3]; more than 78.7 µM in assay [4]; 5.38 µM in assay [5]; 7.42 µM in assay [6]. Further, the GI50 in assay [7] is 1.71 µM; in assay [8] it was 1.78 µM; in assay [9], 4.91 µM; in [10], 1.99 µM. Moreover, the TGI in assay [1] is more than 100 µM; in assay [2], more than 91.1 µM; in assay [3], more than 100 µM; in assay [4], more than 100 µM; in assay [5] it was more than 100 µM; in assay [6] it was more than 100 µM. Besides, the TGI was more than 100 µM in assay [7], more than 100 µM in [9] and more than 22.3 µM in assay [10].
In the case of `CC(=O)O[C@H]1C[C@@H]2[C@@]3(C)CC[C@H]4C[C@@]4(C)[C@@H]3CC[C@@]2(C)C2=CCC3=C(COC3=O)[C@]21C`, the GI50 in [1] is 15.6 µM; in assay [2] it was 16.9 µM; in assay [3], 15.7 µM; in [4], 17.6 µM; in assay [5], 19.9 µM; in [7], 11 µM. For the same compound, the GI50 is 52.7 µM in assay [8], 20.7 µM in [9] and 33.5 µM in [10]. Further, the TGI in [1] is 38.5 µM; in assay [2], 36.3 µM; in assay [3], 32.5 µM; in assay [4] it was 35 µM; in assay [5], 65 µM; in assay [7], 26.4 µM. Also, the TGI in assay [8] is more than 100 µM; in assay [9] it was 54.7 µM; in [10], more than 100 µM.
For the compound `NS(=O)(=O)c1cc2c(cc1Cl)NCNS2(=O)=O`, the TGI in assay [1], in [2], in [3], in assay [4], in [5] and in assay [6] was more than 100 µM in each case. The TGI in assay [7], in [8], in assay [9] and in assay [10] was more than 100 µM in each case.
With `O=C(O)CSc1cc(NS(=O)(=O)c2ccc(Br)cc2)c2ccccc2c1O`, the GI50 is 16.5 µM in [1]; 3.11 µM in [2]; 17.8 µM in assay [3]; 13.8 µM in [4]; 3.73 µM in [5]; 14.6 µM in assay [6]. Further, the GI50 in assay [7] is 8.02 µM; in [8] it was 3.05 µM; in assay [9], 4.84 µM; in assay [10], 3.08 µM. Moreover, the TGI stood at 30.1 µM in assay [1]; 13.8 µM in [2]; 32.8 µM in assay [3]; 32.8 µM in assay [4]; 11 µM in [5]; 29.4 µM in [6]. Besides, the TGI in assay [7] is 21.1 µM; in assay [8], more than 26.8 µM; in assay [9], 23.1 µM; in [10], more than 23.3 µM.
For the compound `CCN1CCN(CC(=O)Nc2nc3ccc(NCc4ccc(Br)cc4)cc3s2)CC1`, the GI50 in assay [1] was 5.14 µM; in assay [2] it was 3.3 µM; in assay [3], 1.75 µM; in assay [4], 3.02 µM; in [5] it was 3.25 µM; in [6] it was 1.84 µM. Moreover, the GI50 is 1.66 µM in assay [7], 1.95 µM in assay [8] and 1.75 µM in assay [9]. Further, the TGI in assay [1] was more than 100 µM; in assay [2], more than 100 µM; in assay [3], 3.24 µM; in [4] it was more than 100 µM; in [5], more than 100 µM; in assay [6], 4.55 µM. Moreover, the TGI was found to be 3.19 µM in assay [7], 3.81 µM in assay [8] and 4.55 µM in [9].
Turning to `O=c1c(Oc2ccc(F)cc2F)cc2cnc(NC3CCOCC3)nc2n1C1CC1`, the GI50 in [1], in [2], in [3], in [5], in assay [6] and in assay [7] was more than 25 µM throughout. Besides, the GI50 was more than 25 µM in assay [8], 19.3 µM in [9] and more than 25 µM in assay [10]. The TGI in assay [1], in [2], in [3], in assay [5], in assay [6] and in [7] was more than 25 µM in each case. Further, the TGI in [8], in [9] and in assay [10] was more than 25 µM each time.
Take `COc1ccc(Cn2c(Br)c3c(c2-c2cc(OC)c(OC)c(OC)c2)CCc2sc(N)nc2-3)cc1`: the GI50 in [1] is 2.04 µM; in assay [2] it was 0.866 µM; in [3], 1.16 µM; in assay [5] it was 1.32 µM; in [6], 0.765 µM; in assay [7], 0.438 µM. Besides, the GI50 in assay [8] was 0.465 µM; in assay [9] it was 0.626 µM; in assay [10], 1.51 µM. Moreover, the TGI in assay [1] was 7.43 µM; in assay [2], 36.3 µM; in assay [3] it was 10.5 µM; in assay [5] it was 16.9 µM; in assay [6], more than 28.2 µM; in assay [7] it was 28.5 µM. Besides, the TGI was 3.67 µM in [8], 21.5 µM in assay [9] and more than 29.7 µM in assay [10].

The record behind these values is PubChem BioAssay (NCI).
